# Laboratory results published in ChEMBL document CHEMBL1128489, “Novel hexakis(areneisonitrile)technetium(I) complexes as radioligands targeted to the multidrug resistance P-glycoprotein” (J Med Chem, 1995).
# Experiments:
# Settings in all cases: in vivo, 0.5 h
# [1] = tested on: Rattus norvegicus; assay: Biodistribution values represent the mean % id/organ for paired rats 30 min post intravenous injection complex in Spleen; assay type: ADME, organism-based
# [2] = tested on: Rattus norvegicus; assay: Biodistribution values represent the mean % id/organ for paired rats 30 min post intravenous injection complex in Adrenal; assay type: ADME, organism-based
# [3] = tested on: Rattus norvegicus; assay: Biodistribution values represent the mean % id/organ for paired rats 30 min post intravenous injection complex in Blood; assay type: ADME, organism-based
# [4] = tested on: Rattus norvegicus; assay: Biodistribution values represent the mean % id/organ for paired rats 30 min post intravenous injection complex in Bone; assay type: ADME, organism-based, Bone element
# [5] = tested on: Rattus norvegicus; assay: Biodistribution values represent the mean % id/organ for paired rats 30 min post intravenous injection complex in Brain; assay type: ADME, organism-based
# [6] = tested on: Rattus norvegicus; assay: Biodistribution values represent the mean % id/organ for paired rats 30 min post intravenous injection complex in Fat; assay type: ADME, organism-based
# [7] = tested on: Rattus norvegicus; assay: Biodistribution values represent the mean % id/organ for paired rats 30 min post intravenous injection complex in GI; assay type: ADME, organism-based
# [8] = tested on: Rattus norvegicus; assay: Biodistribution values represent the mean % id/organ for paired rats 30 min post intravenous injection complex in Heart; assay type: ADME, organism-based
# [9] = tested on: Rattus norvegicus; assay: Biodistribution values represent the mean % id/organ for paired rats 30 min post intravenous injection complex in Kidney; assay type: ADME, organism-based
# [10] = tested on: Rattus norvegicus; assay: Biodistribution values represent the mean % id/organ for paired rats 30 min post intravenous injection complex in Skin; assay type: ADME, organism-based
# [11] = tested on: Rattus norvegicus; assay: Biodistribution values represent the mean % id/organ for paired rats 30 min post intravenous injection complex in Liver; assay type: ADME, organism-based
# [12] = tested on: Rattus norvegicus; assay: Biodistribution values represent the mean % id/organ for paired rats 30 min post intravenous injection complex in Lungs; assay type: ADME, organism-based, Lung
# [13] = tested on: Rattus norvegicus; assay: Biodistribution values represent the mean % id/organ for paired rats 30 min post intravenous injection complex in Muscles; assay type: ADME, organism-based, Muscle tissue
Substance,ID/organ [1] [%],ID/organ [2] [%],ID/organ [3] [%],ID/organ [4] [%],ID/organ [5] [%],ID/organ [6] [%],ID/organ [7] [%],ID/organ [8] [%],ID/organ [9] [%],ID/organ [10] [%],ID/organ [11] [%],ID/organ [12] [%],ID/organ [13] [%]
"Hexakis[2-(3,4,5-Trimethoxyphenyl)ethaneisonitrile]technetium Complex",1.5,0.12,0.93,5.11,0.01,0.19,24.5,0.38,10,1.33,44.2,0.43,4.84
"Hexakis[3,4-Dimethoxy-alpha-tolueneisonitrile]technetium Complex",0.34,0.07,3.27,4.72,0.02,0.21,33.5,0.1,2.25,1.35,44.2,1.22,2.48
Hexakis[3-Nitrobenzeneisonitrile]technetium Complex,0.28,0.01,9.44,5.74,0.03,0.51,42.9,0.17,5.21,5.3,13.8,0.37,7.61
"Hexakis[3,4-(Methylenedioxy)benzeneisonitrile]technetium Complex",1.82,0.05,1.45,4.73,0.01,0.08,0.38,0.03,0.12,0.19,91.8,2.62,0.47
Hexakis[4-Methoxy-alpha-tolueneisonitrile]technetium Complex,2.45,0.03,4.56,2.73,0.02,0.24,3.31,0.08,0.45,0.58,85.6,1.31,1.92
Hexakis[4-Cyanobenzeneisonitrile]technetium Complex,2.47,0.03,9.89,4.9,0.03,0.37,2.99,0.13,1.23,1.23,75.7,2.2,3.84
"Hexakis[2-(3,4-Dimethoxyphenyl)ethaneisonitrile]technetium Complex",1.91,0.04,3,2.96,0.02,0.14,15.7,0.07,1.26,0.82,77.5,1.1,1.77
Hexakis[4-Acetylbenzeneisonitrile]technetium Complex,2.28,0.06,1.13,4.27,0.01,0.07,3.15,0.03,0.66,0.7,92.7,1.73,0.68
Hexakis[3-Acetamidobenzeneisonitrile]technetium Complex,1.5,0.02,0.87,3.48,0.01,0.03,2.12,0.03,0.38,0.17,86.9,1.45,0.53

# The remaining lines, values ahead:
ID/organ [1] [%],ID/organ [2] [%],ID/organ [3] [%],ID/organ [4] [%],ID/organ [5] [%],ID/organ [6] [%],ID/organ [7] [%],ID/organ [8] [%],ID/organ [9] [%],ID/organ [10] [%],ID/organ [11] [%],ID/organ [12] [%],ID/organ [13] [%],Substance
1.85,0.05,3.39,3.6,0.01,0.2,13.8,0.12,2.98,0.62,62.2,0.63,2.99,Hexakis[3-(hydroxymethyl)benzeneisonitrile]technetium Complex
0.13,0.04,0.59,2.29,0.01,0.17,65.1,0.17,3.83,0.76,39.2,0.61,3.02,"Hexakis[3,4,5-Trimethoxy-alpha-tolueneisonitrile]technetium Complex"
1.12,0.03,19.2,8.79,0.06,1.26,10.1,0.33,4.84,3.65,38,1.06,6.87,Hexakis[4-Nitrobenzeneisonitrile]technetium Complex
2.78,0.07,4.19,4.29,0.01,0.26,5.75,0.15,0.61,0.6,73.8,3.04,3.9,"Hexakis[3,4-(Methylenedioxy)-alpha-tolueneisonitrile]technetium Complex"
1.25,0.04,14.1,9.58,0.04,0.55,19.4,0.35,2.74,2.88,32.5,0.51,6.82,Hexakis[2-Methoxy-5-nitrobenzeneisonitrile]technetium Complex
4.5,0.07,3.92,4.38,0.02,0.4,2.44,0.13,0.61,1.07,87.7,1.89,4.67,"Hexakis[3,4-Dimethoxybenzeneisonitrile]technetium Complex"
0.6,0.16,0.33,11,0.05,0.73,30.3,2.36,6.26,3.95,10.8,0.71,18.5,Hexakis-(2-methoxyisobutylisonitrile)Technetium (99mTc-MIBI)
3.35,0.04,5.06,3.63,0.02,0.2,2.22,0.12,0.3,0.43,75.9,0.87,1.82,"Hexakis[3,5-Dimethoxy-alpha-tolueneisonitrile]technetium Complex"
2.25,0,0.5,1.53,0.01,0.11,3.12,0.03,0.49,0.26,92.5,1.83,0.74,"Hexakis[3,5-Dimethoxybenzeneisonitrile]technetium Complex"
2.94,0.03,0.79,3.44,0,0.26,1.86,0.15,0.19,0.41,81.1,3.93,1.99,Hexakis[2-(4-Methoxyphenyl)ethaneisonitrile]technetium Complex
